This assay relates to pancreatic endoderm cells derived from human iPS cells. The experiment in a line: Expansion culture of pancreatic endoderm cells with Y-27632. Type of assay: cell-based. Here is the method:
FIG. 4-A A schematic diagram illustrating expansion culture of pancreatic endoderm cells with Y-27632 (50 μM). NKX6.1-positive pancreatic endoderm cells were seeded on a plate and cultured in a culture medium containing Y-27632 (50 μM) for one week. After the elapse of one week, the cells were reseeded, and passage and expansion culture were repeated. PDX1^+/NKX6.1^+ pancreatic endoderm cells were produced from iPS cells (585A1 line) or ES cells (KhES-3 line) on a 6-well plate using the method by Toyoda et al. (Toyoda T, et al. Stem Cell Reports 2017). Briefly, the undifferentiated cells above were seeded at 1×10^6/well on a 6-well plate coated with iMatrix-511 silk. The cells were cultured in RPMI to which an S1 culture medium (1×B-27 Supplement, 100 U/ml penicillin/streptomycin, 100 ng/ml activin A, and CHIR99021 (Day 1: 3 μM, Days 2 and 3: 1 μM, and Day 4: 0 μM)) had been added for 4 days, in an S2 culture medium (improved MEM to which 0.5×B-27 Supplement, 100 U/ml penicillin/streptomycin, and 50 ng/ml KGF/FGF7 had been added) for 5 days, and in an S3 culture medium (improved MEM to which 0.5×B-27 Supplement, 100 U/ml penicillin/streptomycin, 50 ng/ml KGF/FGF7, 0.2 μM LDN-193189, 0.1 μM SANT-1, and 10 nM TTNPB had been added) for 2 days. The cells were detached from the 6-well plate using trypsin, and were reseeded on a 6-well plate coated with iMatrix-511 silk at 1.5×10^6/well using the S3 culture medium again. On the next day, the culture medium was changed to an S4 culture medium (improved MEM to which 0.5×B-27 Supplement, 100 U/ml penicillin/streptomycin, 100 ng/ml KGF/FGF7, 50 ng/ml EGF, 10 mM nicotinamide, and 50 μM Y-27632 had been added), and the cells were cultured for 4 days. (1) After the cells produced in clause 1 above were washed with PBS(−), 1 ml of 0.25% trypsin-EDTA was added thereto, and the cells were incubated at 37° C. and 5% CO2 for 5 minutes. (2) The adherent cells were detached through pipetting and were added to a 50-ml centrifuge tube. (3) 4 ml of DMEM (Dulbecco's Modified Eagle Medium)/10% FBS/PS (penicillin-streptomycin) was added to the centrifuge tube. (4) The resulting mixture was centrifuged at 400 G for 3 minutes, and the supernatant was removed. (5) The cells were suspended in improved MEM (containing 10 μM Y-27632, 0.5×B-27 Supplement, and 100 U/ml penicillin/streptomycin), and were counted. (6) When the cells were seeded on a 6-well plate, an amount of the suspension necessary to provide 1×10^6 cells/well was collected and was centrifuged at 400 G for 3 minutes (2×10^5 cells/well for a 24-well plate). (7) After the supernatant was removed, the cells were re-suspended in improved MEM (containing 100 ng/ml KGF, 50 ng/ml EGF, 10 mM nicotinamide, 50 μM Y-27632, 0.5×B-27 Supplement, and 100 U/ml penicillin/streptomycin), the suspension was adjusted to correspond to 2 ml/well, and then the cells were seeded. A 6-well plate to which the cells were to be seeded had been coated in advance by adding a solution formed by mixing 10 μl of iMatrix-511 silk and 1.5 ml of PBS(−) to each well 1 hour before seeding, and incubating the plate at 37° C. and 5% CO2 for 1 hour. (8) On the next day (Day 1), the cells were washed with improved MEM, and then the culture medium was changed to improved MEM (5 ml/well) containing 100 ng/ml KGF, 50 ng/ml EGF, 10 mM nicotinamide, 50 μM Y-27632, 0.5×B-27 Supplement, and 100 U/ml penicillin/streptomycin. (9) The cells were washed with improved MEM 3 days after that (on Day 4), and then the culture medium was changed to the same culture medium as that in the step (7) (5 ml/well). (10) The steps (1) to (7) above were conducted 3 days after that (on Day 7), and the next passage (expansion culture) was conducted. Expansion culture and passage culture were repeated by repeating the steps (8), (9), and (10) from the next day. One round of the passage (expansion culture) corresponded to 7 days (operations above). FIGS. 4-A show the outline of this procedure. […]

The mark [1] stands for this setting: 50 μM, flow cytometry, FIG. 4-E.
Where [2] appears, read: 50 μM, immunostaining after expansion culture, FIG. 4-D.

Consider one compound from US20260097083A1, “METHOD FOR PRODUCING PANCREATIC ENDODERM CELLS” (Kyoto University, priority 2022, published 2026).

In the case of `C[C@@H](N)[C@H]1CC[C@H](C(=O)Nc2ccncc2)CC1` [Y-27632], the “proliferative capacity of the pancreatic endoderm cells (Ki67-positive ratio)” value (50 μM, during expansion culture, FIG. 4-F) is “maintained”. Under setting [1], the Ki67-positive ratio result is given as “kept” and the “ratio of the pancreatic endoderm cells” value is listed as “kept”. Besides, under setting [2], the “expression of Ki67” value was “maintained”; the “expression of PDX1 and NKX6.1” value is given as “maintained”. Moreover, for the setting “Y-27632 50 μM, 60 days, FIG. 4-B”, the “total number of cells increased by a factor of” value is ≥ 1×10^5. In addition, the “number of PDX1+/NKX6.1+ pancreatic endoderm cells increased by a factor of” value (Y-27632 50 μM, 60 days, FIG. 4-C) is ≥ 1×10^5. Besides, for the setting “culture medium for expansion culture with Y-27632”, the “NKX6.1-positive ratio on repeated expansion culture” value is on record as “tended to gradually decrease”.
